Laboratory results from patent publication US7329520B2, “Fructosyl peptide oxidase and utilization thereof” (Daiichi Pure Chemicals Co., Ltd., priority 2002, dated 2008).
No end group written: not given here.

Tests used:
[1] = test system: Zingiberaceae-plant-origin crude enzyme solution; test: Defructosylation of fructosyl peptide, analysed by capillary electrophoresis; assay type: biochemical, Zingiber officinale; details: reaction mixture 1, 16 hours at 37° C., pH 8.0, control peak area 32 mABU×sec
Protocol: (i) A 100 mM phosphate buffer (pH 8.0) (100 μL), a 500 μM aqueous solution (40 μL) of the N-terminal-valine fructosylated peptide having an amino acid sequence represented by SEQ ID NO: 2 (f-VHL: products of Bioquest), purified water (20 μL), and the Zingiberaceae-plant-origin crude enzyme solution (40 μL) prepared in Example 1 were mixed together, and the mixture was caused to react for 16 hours at 37° C. The reaction mixture was subjected to ultrafiltration (molecular weight: 10,000), and the filtrate was collected (reaction mixture 1). The reaction mixture 1 was analyzed through use of a capillary electrophoresis apparatus CAPI-3200 (product of Otsuka Electronics Co., Ltd) (electrophoresis buffer: 150 mM phosphate buffer (pH 2.0), voltage: 15 kV, detection wavelength: 210 nm) in terms of peak position and peak area.
As a control, purified water was added instead of the crude enzyme solution, and the resultant mixture was allowed to react under similar conditions, to thereby prepare a filtrate (control solution 1). The analysis results obtained from the control solution 1 were compared with those of the reaction mixture 1.
The fructosyl peptide employed in the enzyme reaction or control test had been mixed with corresponding non-fructosylated peptide. The presence or absence of the enzyme activity was determined through comparison of the two peaks.

[2] = test system: Zingiber officinale-originating enzyme; test: Hydrogen peroxide production, DA-64 color development; assay type: biochemical; details: lmM substrate, enzyme 0.3 u/mL, 30 minutes at 50° C., pH 8.0, DA-64/POD
Protocol: To a 50 mM phosphate buffer (pH 8.0) containing 0.5 mM DA-64 (product of Wako Pure Chemical Industries, Ltd.), 200-u/mL POD, 0.1% sodium azide, and lmM fructosyl valine or fructosyl peptide (SEQ ID NOs: 1 to 5) (all being final concentrations), a Zingiber officinale-originating enzyme solution was added in an amount of 0.3 u/mL (final concentration), and the mixture was treated for 30 minutes at 50° C. Absorbance at 700 nm was measured by employment of purified water as a control. Color development of DA-64 was observed (Table 1). Thus, hydrogen peroxide was confirmed to be produced.

[3] = test system: enzyme originating from a plant belonging to the family Zingiberaceae; test: Enzyme activity on substrates by glucosone production (substrate specificity, Km); assay type: biochemical, Zingiber officinale; details: Lineweaver-Burk's plots; glucosone production at 37° C., pH 8.0
Protocol: The method for determining activity of the enzyme of the present invention is exemplified by a method in which the enzyme is reacted with a substrate fructosyl peptide, to thereby produce non-fructosyl peptide, glucosone, and hydrogen peroxide, and the amount of any one of these compounds produced through the enzyme reaction is measured. Next will be described an example method of measuring the amount of glucosone produced. Hereinafter, unless otherwise specified, the substrate employed for determining activity of the enzyme of the present invention is fructosyl valyl histidine. One unit (U) of the titer of the enzyme is defined as the amount of enzyme which produces 1 μmol glucosone in one minute as measured when the substrate is fructosyl valyl histidine. […]
To the above reaction mixture, a mixture which has been prepared in advance by mixing 200 mM acetate buffer (pH 6.0) (750 μL), 4000-u/mL glucose oxidase (Toyobo Co., Ltd.) (450 μL), 0.15% 4-aminoantipyrine (300 μL), 0.3% TOOS (Dojindo Laboratories) (300 μL), 500-u/mL peroxidase (Toyobo Co., Ltd.: Type III) (300 μL), and 1% sodium azide (300 μL) is added, followed by heating for 10 minutes at 37° C. Thereafter, absorbance is measured at 550 nm. […] Thus, the amount (in micromoles) of glucosone produced in one minute is calculated, and the obtained value is used as the activity unit of the enzyme solution. […]

[4] = test system: enzyme originating from Zingiber officinale; test: Measurement of fructosyl peptide through glucosone, absorbance at 550 nm; assay type: biochemical; details: 0 to 40 μM substrate, enzyme 1.6 u/mL (30 μL), 16 hours at 37° C.
Protocol: 200 mM Phosphate buffer (pH 8.0) (150 μL), purified water (360 μL), and each of aqueous fructosyl valyl histidine solutions (60 μL) having different concentrations were mixed together so that the final fructosyl valyl histidine concentrations after reaction fell between 0 and 40 μM. The reaction was mixed with a solution of the enzyme originating from Zingiber officinale (1.6 u/mL) (30 μL), and the resultant mixture was allowed to react for 16 hours at 37° C. Subsequently, a mixture which had been prepared in advance by mixing 200 mM acetate buffer (pH 6.0) (750 μL), 4000-u/mL glucose oxidase (Toyobo Co., Ltd.) (450 μL), 0.15% 4-aminoantipyrine (300 μL), 0.3% TOOS (Dojindo Laboratories) (300 μL), 500-u/mL peroxidase (Toyobo Co., Ltd.: Type III) (300 μL), and 1% sodium azide (300 μL) was added to the reaction mixture, and the resultant mixture was treated for 10 minutes at 37° C., followed by measuring absorbance at 550 nm (FIG. 7).

| peak attributed to f-VHL (capillary electrophoresis) [1] | Absorbance at 700 nm [2] [mAbs] | Molecule | Km [3] [µM] | absorbance at 550 nm against substrate concentration [4] |
| --- | --- | --- | --- | --- |
| does not exist | 570 | f-VHL: N-terminal-valine fructosylated peptide having an amino acid sequence represented by SEQ ID NO: 2; fructosyl tripeptide (fructosyl-Val-His-Leu) |  |  |
|  | 198 | f-VHLTP: N-terminal-valine fructosylated pentapeptide substrate (SEQ ID NO: 4) (fructosyl-VHLTP) |  |  |
|  | 558 | f-VHLT: N-terminal-valine fructosylated tetrapeptide substrate (SEQ ID NO: 3) (fructosyl-VHLT) |  |  |

More lines, now with the values behind:

| Molecule | peak attributed to f-VHL (capillary electrophoresis) [1] | Absorbance at 700 nm [2] [mAbs] | Km [3] [µM] | absorbance at 550 nm against substrate concentration [4] |
| --- | --- | --- | --- | --- |
| CC(C)[C@H](NC1(CO)O[C@H](CO)[C@@H](O)[C@@H]1O)C(=O)N[C@@H](Cc1c[nH]cn1)C(=O)O (some centres unmarked) [f-VH, fructosyl valyl histidine] |  | 735 | 1200 | increase in accordance with the increase in concentration |
| f-VHLTPE: N-terminal-valine fructosylated hexapeptide substrate (SEQ ID NO: 5) (fructosyl-VHLTPE) |  | 223 |  |  |
